The text below walks through data of US20200147158A1, “SANGHUANGPORUS SANGHUANG STRAINS AND THEIR PRODUCTS, EXTRACTS AND APPLICATIONS” (FOOD INDUSTRY RESEARCH AND DEVELOPMENT INSTITUTE, priority 2018, published 2020).

What all share (type): cell-based
The target of one experiment is T1, ER-β (Homo sapiens, UniProt Q92731).
T1 construct: expressed in transfected cells; host or cells: CV-1 (Cercopithecus aethiops kidney cells)
Description: Evaluation of SERMs activity: ERβ/pERE-TA-SEAP reporter gene assay in transfected CV-1 cells. To be noted: for ER Subtype Activity ER-β: ratio to untreated cells (Medium only); for ER-β/ER-α: ratio of relative ER-β to ER-α activity. The protocol: (§1) CV-1 cells (Cercopithecus aethiops kidney cells) were grown at a confluence of 70-80% and were harvested in a cell suspension at a concentration of 5×10^4 cell/ml. The cell suspensions were added to each well (100 μl/well) of 96-well plate and the 96-well plate was incubated at 37° C., 5% CO2 incubator overnight.
(§2) 500 μl jetPRIME® buffer. 5 μg pERE-TA-SEAP and 5 μg ERα DNA plasmid (or ERβ DNA plasmid) were mixed in 1.5 ml eppendorf, then 20 μl jetPRIME® Transfection Reagent and 1.5 ml medium were added. The DNA mixtures were added to each well of 96-well plate (20 μl) and the 96-well plate was incubated at 37° C., 5% CO2 incubator for 4 hours.
(§3) The supernatant solutions were removed from each well of 96-well plate, then 90 μl charcoal-treated. FBS medium without phenol red were added to each well of 96-well plate. The samples to be tested were added to the wells of 96-well plate, which was incubated in 37° C., 5% CO2 incubator for 48 to 72 hours. The cells were harvested for the subsequent reporter gene assay and cell toxicity assay.
25 μl cell culture supernatants were collected from the 96-well plate and, then added to a new luminescence microplate, which was incubated at 65° C. water bath for 30 minutes to remove the activity endogenous alkaline phosphatase, and was placed on ice for 5 minutes and was centrifuged (1,000 rpm) for one minute. 25 μl PhosphaLight™ assay buffers were added at room temperature for 5 minutes and 25 μl CSPD (Disodium 3-(4-methoxyspiro {1,2-dioxetane-3,2′-(5′-chloro)tricyclo [3.3 1.13,7]decan}-4-yl phenyl phosphate)-containing Phospha-Light™ reaction buffers were added at room temperature for 20 minutes. The luminescence microplate was placed in Victor™ Light 1420 Luminescence Counter and the SEAP enzyme activities were measured.
Background: In a reporter assay the amount or activity of a reporter protein is the signal.

In the next experiment the target is T2, Estrogen Receptor (ER) (Homo sapiens, UniProt P03372).
T2 construct: endogenous in cells; host or cells: MCF-7
T2 sequence (P03372 1-595): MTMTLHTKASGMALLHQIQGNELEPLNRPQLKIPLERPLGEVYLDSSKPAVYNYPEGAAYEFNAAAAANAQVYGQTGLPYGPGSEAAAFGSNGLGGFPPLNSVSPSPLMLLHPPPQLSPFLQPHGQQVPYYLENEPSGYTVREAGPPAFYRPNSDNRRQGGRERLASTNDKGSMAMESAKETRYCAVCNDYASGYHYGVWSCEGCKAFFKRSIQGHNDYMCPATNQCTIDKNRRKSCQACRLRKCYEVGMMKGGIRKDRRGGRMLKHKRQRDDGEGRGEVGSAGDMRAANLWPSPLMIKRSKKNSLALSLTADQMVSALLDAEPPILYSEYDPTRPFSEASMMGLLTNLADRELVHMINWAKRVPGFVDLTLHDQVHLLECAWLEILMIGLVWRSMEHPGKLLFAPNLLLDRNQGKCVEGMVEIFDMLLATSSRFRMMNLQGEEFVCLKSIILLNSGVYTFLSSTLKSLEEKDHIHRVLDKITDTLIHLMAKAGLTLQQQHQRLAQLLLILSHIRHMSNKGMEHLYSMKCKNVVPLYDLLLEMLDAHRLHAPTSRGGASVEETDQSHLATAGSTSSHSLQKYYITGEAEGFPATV
Briefly: ER total activity assay (pERE-TA-SEAP reporter in MCF-7 cells). The note with it: for ER activity (FIG. 1, in words): 2 μg/ml, 5 μg/ml and 10 μg/ml; for ER activity compared with 17-β Estradiol (positive control), FIG. 1, in words: MCF-7 cells. As to the method:
ER is a ligand-activated enhancer protein that is a member of the steroid/nuclear receptor superfamily. […] Secreted alkaline phosphatase (SEAP) is a reporter widely used to study promoter activity or gene expression.
The 1 ml 0.05% trypsin-EDTA solution was added to 80% confluence (on Day 5, if cells were in log phase) of MCF-7 cells in a T75 flask at 37° C. for 5 minutes. After the cells were detached, 5 ml charcoal-treated FBS-containing medium were added to suspend the cells. The charcoal-treated FBS-containing PBS medium were added 2 ml cell suspensions to the final volume of 10 ml of a mixture. The mixture was dispensed into each well (100 μl/well, 2×10^4 cells/well) of a 96-well plate by 8-channel pipette, and the 96-well plate was placed at 37° C. and 5% CO2 overnight to obtain about 70% confluence.
To transfect cells to express the ERE, a transfection mixture was prepared. TransIT®-LT1 Transfection Reagent is a broad spectrum reagent that provides high efficiency plasmid DNA delivery in many mammalian cell types including primary cells. Specifically, 1 ml Opti-MEM®, 14 μl TransIT®-LT1 Transfection Reagent and 5 μg pERE-TA-SEAP were added into a 1.5 ml Eppendorf and let the transfection mixture stand for 15-30 minutes.
Transfection mixture containing TransIT-DNA was dispensed into each well (10 μl/well) of a 96-well plate, and the 96-well plate was placed at 37° C. and 5% CO2 for 24 hours. The supernatants were removed from the 96-well plate using 8-channel pipette.
(§4) 25 μl cell culture supernatants were collected from the 96-well plate and, then added to a new luminescence microplate, which was incubated at 65° C. water bath for 30 minutes to remove the activity endogenous alkaline phosphatase, and was placed on ice for 5 minutes and was centrifuged (1,000 rpm) for one minute.

The target in another experiment is T3, ER-α (Homo sapiens, UniProt P03372).
T3 construct: expressed in transfected cells; host or cells: CV-1 (Cercopithecus aethiops kidney cells)
T3 sequence (P03372 1-595): T2 sequence (P03372 1-595)
Briefly: Evaluation of SERMs activity: ERα/pERE-TA-SEAP reporter gene assay in transfected CV-1 cells. The note with it: 25 μg/mL, ratio to untreated cells (Medium only). As to the method: as §1, §2, §3, §4

T1 sequence (Q92731 whole entry, species assumed): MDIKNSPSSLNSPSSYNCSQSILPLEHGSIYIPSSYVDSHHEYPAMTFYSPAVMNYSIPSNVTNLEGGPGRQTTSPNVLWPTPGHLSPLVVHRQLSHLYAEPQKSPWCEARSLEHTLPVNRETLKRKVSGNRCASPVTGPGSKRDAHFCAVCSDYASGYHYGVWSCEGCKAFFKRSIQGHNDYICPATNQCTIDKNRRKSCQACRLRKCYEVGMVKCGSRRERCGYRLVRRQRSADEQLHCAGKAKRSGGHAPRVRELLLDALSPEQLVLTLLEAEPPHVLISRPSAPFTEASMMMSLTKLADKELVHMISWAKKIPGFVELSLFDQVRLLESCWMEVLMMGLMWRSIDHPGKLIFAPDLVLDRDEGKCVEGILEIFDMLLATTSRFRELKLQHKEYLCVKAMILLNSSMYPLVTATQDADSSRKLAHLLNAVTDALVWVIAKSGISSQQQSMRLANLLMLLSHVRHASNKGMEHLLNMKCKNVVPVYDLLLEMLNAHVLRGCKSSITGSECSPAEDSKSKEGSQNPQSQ

Regarding `C[C@]12CC[C@@H]3c4ccc(O)cc4CC[C@H]3[C@@H]1CC[C@@H]2O` [17-β Estradiol (E2), 17-β Estradiol, reference compound], the “ER Subtype Activity ER-β” value at ER-β (200 nM) is given as 3.70 ± 0.45.
Consider `C=C1CCCC(C)(C)C1CC/C(C)=C/C(=O)O` (stereo not shown) [Compound 1, (E)-5-(2,2-dimethyl-6-methylenecyclohexyl)-3-methylpent-2-enoic acid], for which, at Estrogen Receptor (ER), the “ER activity (FIG. 1, in words)” value is listed as “significant ER activity” and the “ER activity compared with 17-β Estradiol (positive control), FIG. 1, in words” value is “superior ER activity over 17-β Estradiol”. The “ER Subtype Activity ER-α” value at ER-α is given as 1.21 ± 0.53. The “ER-β versus ER-α activity (in words)” value on ER-β was “superior ER-β activity over ER-α activity”. In addition, on ER-β (25 μg/mL), the ER-β/ER-α is recorded as 3.1 and the “ER Subtype Activity ER-β” value was 3.80 ± 0.11.
Regarding `C=C1CCCC(C)(C)[C@@H]1/C=C/C(C)=C/C(=O)O` [Compound 2, (+)-(2E,-4E)-5-((S)-2,2-dimethyl-6-methylenecyclohexyl)-3-methylpenta-2,4-dienoic acid], at Estrogen Receptor (ER), the “ER activity (FIG. 1, in words)” value is reported as “significant ER activity” and the “ER activity compared with 17-β Estradiol (positive control), FIG. 1, in words” value is reported as “superior ER activity over 17-β Estradiol”. The “ER Subtype Activity ER-α” value on ER-α is 1.16 ± 0.16. Besides, the “ER-β versus ER-α activity (in words)” value on ER-β is listed as “superior ER-β activity over ER-α activity”. At ER-β (25 μg/mL), the ER-β/ER-α stood at 2.2 and the “ER Subtype Activity ER-β” value is given as 2.53 ± 0.77.
